Columns and labels:
CYP3A4 = molecular target: T1, CYP3A4 (Homo sapiens, UniProt P08684); assay: Mechanism based inhibition of CYP3A4 assay (MBI 3A4); format: in vitro ADME; settings: human liver microsomes, 25 uM, hydroxy-midazolam formation 30 min vs 0 min preincubation
T1 construct: from tissue; host or cells: human liver microsomes
Procedure: The time dependent inhibition towards CYP3A4 is assayed in human liver microsomes (0.02 mg/mL) with midazolam (15 μM) as a substrate. The test compounds and water control (wells w/o test compound) are preincubated in presence of NADPH (1 mM) with human liver microsomes (0.2 mg/mL) at a concentration of 25 uM for 0 min and 30 min. After preincubation, the incubate is diluted 1:10 and the substrate midazolam is added for the main incubation (15 min). The main incubation is quenched with acetonitrile and the formation of hydroxy-midazolam is quantified via LC/MS-MS. The formation of hydroxy-midazolam from the 30 min preincubation relative to the formation from the 0 min preincubation is used as a readout. Values of less than 100% mean that the substrate midazolam is metabolized to a lower extent upon 30 min preincubation compared to 0 min preincubation. In general low effects upon 30 min preincubation are desired (corresponding to values close to 100%/not different to the values determined with water control).

GP2D cells = assay: GP2D proliferation assay (120 h) (colorectal cancer, G12D); format: cell-based
Procedure: GP2D cells (ATCC No. CRL-5807) are dispensed into white 384-well plates, flat and white bottom (Perkin Elmer, 6007680) at a density of 500 cells per well in 40 μl DMEM (Sigma, D6429)+1× GlutaMAX (Gibco, 35050038)+10% FCS (fetal calf serum). […] Compounds (10 mM stock in DMSO) are added at logarithmic dose series using the HP Digital Dispenser D300 (Tecan), including DMSO controls and normalizing for added DMSO. For the TO time point measurement, untreated cells are analyzed at the time of compound addition. Plates are incubated for 120 h, and cell viability is measured using CellTiter-Glo luminescent cell viability reagent (Promega product code G7570). Viability (stated as percent of control) is defined as relative luminescence units RLU of each well divided by the RLU of cells in DMSO controls.

MKN1 cells = assay: MKN1 CTG proliferation assay (120 h) (gastric cancer, wt amplified), assay 1; format: cell-based; settings: Homo sapiens, MKN-1
Procedure: SAS cells (JCRB0260) are dispensed into 384-well plates, flat and clear bottom (Greiner, PNr. 781091) at a density of 300 cells per well in 60 μL DMEM:F12 (Gibco 31330-038)+10% Fetal Calf Serum (HyClone, PNr.: SH30084.03) and incubated at 37° C. in a CO2 incubator overnight The next day, compounds (10 mM stock in DMSO) are added with the ECHO acoustic liquid handler system (Beckman Coulter), including DMSO controls. Plates are incubated for 120 h, and cell viability is measured using CellTiter-Glo luminescent cell viability reagent (Promega product code G7570). Viability (stated as percent of control) is defined as relative luminescence units RLU of each well divided by the RLU of cells in DMSO controls.
MKN1 cells (JCRB0252) are dispensed into white 384-well plates, flat and white bottom (Perkin Elmer, 6007680) at a density of 500 cells per well in 40 μl RPMI (Gibco, PNr.: 21875034)+10% FCS (HyClone, PNr.: SH30084.03) (assay 1) or into black 384-well plates, flat and clear bottom (Greiner, PNr. 781091) at a density of 200 cells per well in 60 μl RPMI-1640 (Gibco #A10491)+10% FCS (HyClone, PNr.: SH30084.03)+PenStrep (Gibco, PNr.15140-122) (assay 2). […] Compounds (10 mM stock in DMSO) are added at logarithmic dose series using the HP Digital Dispenser D300 (Tecan) (assay 1) or the ECHO acoustic liquid handler system (Beckman Coulter) (assay 2), including DMSO controls and normalizing for added DMSO. Plates are incubated for 120 h, and cell viability is measured using CellTiter-Glo luminescent cell viability reagent (Promega product code G7570). Viability (stated as percent of control) is defined as relative luminescence units RLU of each well divided by the RLU of cells in DMSO controls.

T1 sequence (P08684 whole entry): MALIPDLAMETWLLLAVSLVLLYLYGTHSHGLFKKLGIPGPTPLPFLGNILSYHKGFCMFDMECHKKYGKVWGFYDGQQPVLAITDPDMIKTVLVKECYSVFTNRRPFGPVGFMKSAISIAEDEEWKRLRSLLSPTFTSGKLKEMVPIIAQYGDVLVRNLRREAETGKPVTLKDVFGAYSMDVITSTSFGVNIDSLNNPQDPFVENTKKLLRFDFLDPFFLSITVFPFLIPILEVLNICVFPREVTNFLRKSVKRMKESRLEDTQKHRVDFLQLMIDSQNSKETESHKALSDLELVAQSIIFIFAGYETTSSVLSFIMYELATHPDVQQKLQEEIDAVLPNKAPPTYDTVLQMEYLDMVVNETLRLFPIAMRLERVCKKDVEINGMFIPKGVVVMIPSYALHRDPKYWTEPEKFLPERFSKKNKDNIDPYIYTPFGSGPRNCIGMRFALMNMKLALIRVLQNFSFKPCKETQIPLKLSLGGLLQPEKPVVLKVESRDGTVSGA

Row | Compound | MBI 3A4 [%] (CYP3A4) | IC50 (GP2D cells) [nM] | IC50 (MKN1 cells) [nM]
1 | C[C@H](Oc1cc(Nc2ccncn2)nc(-c2noc3c2CCC[C@@]32CCCc3sc(N)c(C#N)c32)n1)[C@@H]1CCCN1C [II-15] | 64 | – | –
2 | C[C@H](Oc1cc(Nc2ncco2)nc(-c2noc3c2CCC[C@@]32CCCc3sc(N)c(C#N)c32)n1)[C@@H]1CCCN1C [II-13] | 52 | – | –
3 | C[C@H](Oc1cc(OCC2(N(C)C)CC2)nc(-c2noc3c2CCC[C@@]32CCCc3sc(N)c(C#N)c32)n1)[C@@H]1CCCN1C [II-21] | 76 | 8 | –
4 | C[C@H](Oc1cc(Nc2cccnn2)nc(-c2noc3c2CCC[C@@]32CCCc3sc(N)c(C#N)c32)n1)[C@@H]1CCCN1C [II-18] | 64 | – | –
5 | COC[C@H](C)Nc1cc(O[C@@H](C)[C@@H]2CCCN2C)nc(-c2onc3c2CCC[C@@]32CCCc3sc(N)c(C#N)c32)n1 [Example I-5] | 61 | – | –
6 | C[C@H](Oc1cc(O[C@@H]2CNC2(C)C)nc(-c2noc3c2CCC[C@@]32CCCc3sc(N)c(C#N)c32)n1)[C@@H]1CCCN1C [II-9] | 72 | – | –
7 | C[C@H](Oc1cc(OCC2(N(C)C)COC2)nc(-c2noc3c2CCC[C@@]32CCCc3sc(N)c(C#N)c32)n1)[C@@H]1CCCN1C [II-22] | 78 | 5 | 33
8 | C[C@H](Oc1cc(Oc2cncnc2)nc(-c2onc3c2CCC[C@@]32CCCc3sc(N)c(C#N)c32)n1)[C@@H]1CCCN1C [Example I-3] | – | 12 | –
9 | C[C@H](Oc1cc(O[C@@H]2CNC[C@@H]2F)nc(-c2noc3c2CCC[C@@]32CCCc3sc(N)c(C#N)c32)n1)[C@@H]1CCCN1C [II-29] | – | 9 | –
10 | COCCOc1cc(O[C@@H](C)[C@@H]2CCCN2C)nc(-c2noc3c2CCC[C@@]32CCCc3sc(N)c(C#N)c32)n1 [II-5] | 69 | – | –
11 | CO[C@@H]1C[C@@H]([C@H](C)Oc2cc(O[C@@H]3CNC3(C)C)nc(-c3noc4c3CCC[C@@]43CCCc4sc(N)c(C#N)c43)n2)N(C)C1 [II-30] | – | – | 223
12 | C[C@H](Oc1cc(OCCO)nc(-c2noc3c2CCC[C@@]32CCCc3sc(N)c(C#N)c32)n1)[C@@H]1CCCN1C [II-6] | 61 | – | –

Continued, values first:

Row | MBI 3A4 [%] (CYP3A4) | IC50 (GP2D cells) [nM] | IC50 (MKN1 cells) [nM] | Compound
13 | 77 | 11 | – | C[C@H](Oc1cc(OCC2(N(C)C)COC2)nc(-c2onc3c2CCC[C@@]32CCCc3sc(N)c(C#N)c32)n1)[C@@H]1CCCN1C [Example I-8]
14 | 67 | – | – | C[C@H](Oc1cc(Nc2cnccn2)nc(-c2noc3c2CCC[C@@]32CCCc3sc(N)c(C#N)c32)n1)[C@@H]1CCCN1C [II-14]
15 | 69 | 17 | – | COc1c(OCC2(N(C)C)COC2)nc(-c2noc3c2CCC[C@@]32CCCc3sc(N)c(C#N)c32)nc1O[C@@H](C)[C@@H]1CCCN1C [II-25]
16 | – | 1 | 357 | C[C@H](Oc1cc(O[C@@H]2CNC2(C)C)nc(-c2noc3c2CCC[C@@]32CCCc3sc(N)c(C#N)c32)n1)[C@@H]1C[C@@H](F)CN1C [II-31]
17 | – | 10 | – | C[C@H](Oc1cc(Oc2cncnc2)nc(-c2noc3c2CCC[C@@]32CCCc3sc(N)c(C#N)c32)n1)[C@@H]1CCCN1C [II-1]
18 | 75 | 363 | – | C[C@H](Oc1cc(Nc2ncccn2)nc(-c2noc3c2CCC[C@@]32CCCc3sc(N)c(C#N)c32)n1)[C@@H]1CCCN1C [II-17]
19 | 65 | 20 | – | C[C@H]1CN(C)CCCN1c1cc(O[C@@H]2CNC2(C)C)nc(-c2noc3c2CCC[C@@]32CCCc3sc(N)c(C#N)c32)n1 [II-28]
20 | 48 | – | – | C[C@H](Oc1cc(Nc2ccccn2)nc(-c2noc3c2CCC[C@@]32CCCc3sc(N)c(C#N)c32)n1)[C@@H]1CCCN1C [II-16]
21 | 40 | – | – | C[C@H](Oc1cc(Oc2nccs2)nc(-c2noc3c2CCC[C@@]32CCCc3sc(N)c(C#N)c32)n1)[C@@H]1CCCN1C [II-2]
22 | 58 | 178 | – | C[C@H](Oc1cc(O[C@H]2CCOC2)nc(-c2noc3c2CCC[C@@]32CCCc3sc(N)c(C#N)c32)n1)[C@@H]1CCCN1C [II-4]
